# From ChEMBL document CHEMBL5120880, “Peptidomimetics: An Overview of Recent Medicinal Chemistry Efforts toward the Discovery of Novel Small Molecule Inhibitors” (J Med Chem, 2022)
# Peptide text beside a SMILES is read from it.
# Legend:
# Escherichia coli [1] = assay: Antibacterial activity against Escherichia coli BW25113 assessed as minimal inhibitory concentration by microdilution assay; format: functional
# Bacillus subtilis [2] = assay: Antibacterial activity against Bacillus subtilis DSM10 assessed as minimal inhibitory concentration by microdilution assay; format: functional
# Salmonella typhimurium = assay: Antibacterial activity against Salmonella typhimurium TA100 assessed as minimal inhibitory concentration by microdilution assay; format: functional, Salmonella enterica subsp. enterica serovar Typhimurium; settings: Salmonella enterica
# Mycolicibacterium phlei = assay: Antibacterial activity against Mycobacterium phlei DSM750 assessed as minimal inhibitory concentration by microdilution assay; format: functional
# [3] = tested on: Staphylococcus epidermidis; assay: Antimicrobial activity against Staphylococcus epidermidis KCTC 1917 assessed as minimal inhibitory concentration incubated for 18 hrs; format: functional
# Escherichia coli [4] = assay: Antimicrobial activity against Escherichia coli KCTC 1682 assessed as minimal inhibitory concentration incubated for 18 hrs; format: functional
# Pseudomonas aeruginosa = assay: Antimicrobial activity against Pseudomonas aeruginosa KCTC 1637 assessed as minimal inhibitory concentration incubated for 18 hrs; format: functional
# Staphylococcus aureus [5] = assay: Antimicrobial activity against Staphylococcus aureus KCTC 1621 assessed as minimal inhibitory concentration incubated for 18 hrs; format: functional
# Staphylococcus aureus [6] = assay: Antibacterial activity against Staphylococcus aureus MRSA assessed as minimal inhibitory concentration incubated for 24 hrs; format: functional
# Bacillus subtilis [7] = assay: Antibacterial activity against Bacillus subtilis assessed as minimal inhibitory concentration incubated for 72 hrs; format: functional
# Staphylococcus aureus [8] = assay: Antibacterial activity against Staphylococcus aureus assessed as minimal inhibitory concentration incubated for 24 hrs; format: functional
# Escherichia coli [9] = assay: Antibacterial activity against Escherichia coli assessed as minimal inhibitory concentration incubated for 24 hrs; format: functional
# Salmonella enterica = assay: Antibacterial activity against Salmonella enterica assessed as minimal inhibitory concentration incubated for 24 hrs; format: functional
# [10] = tested on: Feline infectious peritonitis virus; assay: microbe, parasite or virus in culture; settings: Alphacoronavirus 1
# SARS-CoV-2 = assay: microbe, parasite or virus in culture; settings: Severe acute respiratory syndrome coronavirus 2
# SARS-CoV = assay: microbe, parasite or virus in culture; settings: Severe acute respiratory syndrome-related coronavirus
# [11] = tested on: Middle East respiratory syndrome-related coronavirus; assay: microbe, parasite or virus in culture
# Murine hepatitis virus = assay: microbe, parasite or virus in culture; settings: Murine coronavirus
Structure (SMILES),MIC [3] [µg/mL],MIC (Escherichia coli [4]) [µg/mL],MIC (Pseudomonas aeruginosa) [µg/mL],MIC (Staphylococcus aureus [5]) [µg/mL],MIC (Staphylococcus aureus [6]) [µg/mL],MIC (Bacillus subtilis [7]) [µg/mL],MIC (Staphylococcus aureus [8]) [µg/mL],MIC (Escherichia coli [9]) [µg/mL],MIC (Salmonella enterica) [µg/mL],other results
COc1c(/C=C(\F)c2ccc(NC(=O)[C@H](CC#N)NC(=O)c3ccc(NC(=O)/C(C)=C/c4ccc(O)cc4)cc3)cc2)ccc(C(=O)Nc2ccc(C(=O)O)c(O)c2OC)c1O,–,–,–,–,–,–,–,–,–,MIC (Escherichia coli [1]): < 0.063 µg/mL; MIC (Bacillus subtilis [2]): 0.031 µg/mL; MIC (Salmonella typhimurium): 0.031 µg/mL; MIC (Mycolicibacterium phlei): 0.25 µg/mL
CC(=O)NCCNc1nc(NCC(N)=O)nc(N(Cc2ccccc2)Cc2ccccc2)n1,> 128,> 128,> 128,> 128,–,–,–,–,–,–
CCCCCCCCCCNC(=O)[C@@H](N)Cc1ccccc1,–,–,–,–,20,39,13.3,10,15.6,–
COc1c(NC(=O)c2ccc(-c3ccc4[nH]c(-c5ccc(NC(=O)[C@H](CC#N)NC(=O)c6ccc(NC(=O)/C(C)=C/c7ccc(O)cc7)cc6)cc5)nc4c3)c(OC)c2O)ccc(C(=O)O)c1O,–,–,–,–,–,–,–,–,–,MIC (Escherichia coli [1]): 0.25 µg/mL; MIC (Bacillus subtilis [2]): 2 µg/mL; MIC (Salmonella typhimurium): 0.063 µg/mL; MIC (Mycolicibacterium phlei): 8 µg/mL
CCCCCCCCCCCCNC(=O)[C@@H](N)C(C)CC (stereo not given in full),–,–,–,–,4,510,2.5,2,5,–
CC(=O)NCCNc1nc(NCC(=O)NCCNc2nc(NCC(=O)NCCNc3nc(NCC(=O)NCCNc4nc(NCC(N)=O)nc(N(Cc5ccccc5)Cc5ccccc5)n4)nc(N(CCCN)CCCN)n3)nc(N(Cc3ccccc3)Cc3ccccc3)n2)nc(N(CCCN)CCCN)n1,16,16,16,16,–,–,–,–,–,–
CC(=O)N[C@@H](Cc1c[nH]c2ccccc12)C(=O)N[C@@H](CCCCN)C(=O)N[C@@H](Cc1c[nH]c2ccccc12)C(N)=O (Ac-Trp-Lys-Trp-NH2),> 128,> 128,> 128,> 128,–,–,–,–,–,–
CC(=O)NCCNc1nc(NCC(=O)NCCNc2nc(NCC(N)=O)nc(N(Cc3ccccc3)Cc3ccccc3)n2)nc(N(CCCN)CCCN)n1,32,64,32,32,–,–,–,–,–,–
CC(C)C[C@H](NC(=O)OCC1CCC(F)(F)CC1)C(=O)N[C@@H](C[C@H]1CCNC1=O)C(O)S(=O)(=O)O (stereo not given in full),–,–,–,–,–,–,–,–,–,EC50 [10]: 70 nM; IC50 (SARS-CoV-2): 1100 nM; IC50 (SARS-CoV): 1100 nM; IC50 [11]: 100 nM; EC50 (Murine hepatitis virus): 160 nM
COc1c(NC(=O)c2ccc(NC(=O)c3ccc(NC(=O)[C@H](Cc4nn[nH]n4)NC(=O)c4ccc(NC(=O)/C(C)=C/c5ccc(O)cc5)cc4)cc3)c(OC)c2O)ccc(C(=O)O)c1O,–,–,–,–,–,–,–,–,–,MIC (Escherichia coli [1]): 0.063 µg/mL; MIC (Bacillus subtilis [2]): 0.25 µg/mL; MIC (Salmonella typhimurium): 0.063 µg/mL; MIC (Mycolicibacterium phlei): 2 µg/mL
CCCCCCCCNC(=O)[C@@H](N)Cc1ccccc1,–,–,–,–,52,78,39,39,62.5,–
CCCCNC(=O)[C@@H](N)Cc1ccccc1,–,–,–,–,624,416,1250,–,416,–
CCCCCCCCCCCCCCCCNC(=O)[C@@H](N)Cc1ccccc1,–,–,–,–,1250,625,1250,1250,625,–
CC(=O)NCCNc1nc(NCC(=O)NCCNc2nc(NCC(=O)NCCNc3nc(NCC(N)=O)nc(N(CCCN)CCCN)n3)nc(N(Cc3ccccc3)Cc3ccccc3)n2)nc(N(CCCN)CCCN)n1,16,16,16,16,–,–,–,–,–,–
CCCCCCCCCCCCNC(=O)[C@@H](N)CC(C)C,–,–,–,–,6.25,10,3.3,2.5,4.17,–
COc1c(CCc2ccc(NC(=O)[C@H](CC#N)NC(=O)c3ccc(NC(=O)/C(C)=C/c4ccc(O)cc4)cc3)cc2)ccc(C(=O)Nc2ccc(C(=O)O)c(O)c2OC)c1O,–,–,–,–,–,–,–,–,–,MIC (Escherichia coli [1]): 0.25 µg/mL; MIC (Bacillus subtilis [2]): 0.063 µg/mL; MIC (Salmonella typhimurium): 0.25 µg/mL; MIC (Mycolicibacterium phlei): 1 µg/mL
